Results published in ChEMBL document CHEMBL4765294, “Discovery and evaluation of new compounds targeting ribosomal protein S1 in antibiotic-resistant Mycobacterium Tuberculosis” (Eur J Med Chem, 2020).
The source made the active and inactive calls. No cut-off for these calls is given here.

Legend:
[1] = Binding affinity to Mycobacterium tuberculosis RpsA C-terminal domain (285 to 476 residues) assessed as dissociation constant by fluorescence quenching titration based analysis
[2] = tested on: Mycobacterium tuberculosis; assay: Binding affinity to Mycobacterium tuberculosis RpsA C-terminal domain (285 to 476 residues) assessed as quenching rate constant by fluorescence quenching titration based analysis
[3] = tested on: Mycobacterium tuberculosis; assay: Binding affinity to Mycobacterium tuberculosis RpsA C-terminal domain (285 to 476 residues) at 500 uM by STD based analysis
[4] = tested on: Mycobacterium tuberculosis; assay: Binding affinity to Mycobacterium tuberculosis 15N-labelled wild type RpsA (280 to 438 residues) by chemical shift perturbation based 15N-1H HSQC spectral analysis

SMILES | Kd [1] [µM] | Kq [2] | Activity [3] | Activity [4]
CC(Sc1nc(N)cc(N)n1)C(=O)O (configuration not stated) | 2.67 |  |  | 
Cc1ccc(CNC(=O)CSc2nc3nc[nH]c3c(=O)[nH]2)cc1 | 7.61 | 4.09 10^12/M/s | Active | Active
Cc1cccc(CNC(=O)CSc2nc3nc[nH]c3c(=O)[nH]2)c1 | 2.67 | 3.75 10^12/M/s | Active | Active
CCOC(=O)CSc1nc2nc[nH]c2c(=O)[nH]1 | 0.81 | 3.37 10^12/M/s | Active | Active
Cc1cccc(CNC(=O)COc2cc(O)c3c(=O)cc(-c4ccccc4)oc3c2)c1 | 5.66 | 1.94 10^12/M/s | Active | Active
O=C(O)c1cnccn1 [PYRAZINOIC ACID] | 9.65 | 8.22 10^11/M/s |  | 
Cc1ccc(CNC(=O)COc2cc(O)c3c(=O)cc(-c4ccccc4)oc3c2)cc1 | 3.24 | 6.45 10^12/M/s | Active | Active
O=C(O)CSc1nc2nc[nH]c2c(=O)[nH]1 | 6.35 | 1.79 10^12/M/s | Active | Active
